Results on 31 molecules are retold here after patent US6638973B2, “Taxane formulations” (FSU Research Foundation, Inc., priority 2000, dated 2003).

In the first experiment the test system is HCT116 cells. Nature of the experiment: In vitro cytotoxicity measured by the cell colony formation assay. In kind it is cell-based. The conditions noted are these: HCT116 cells, 72 h incubation with drug, colonies counted after 7 days; ID50 = drug concentration producing 50% inhibition of colony formation; read-out: IN VITRO ID 50 (nm) HCT116. An outline of the steps: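 Colony-forming survival was scored 7 days after a 72 h, 37 °C compound exposure followed by washout into fresh medium.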
As for `C/C=C/C(=O)N[C@@H](c1cccs1)[C@@H](O)C(=O)O[C@H]1C[C@@]2(O)[C@@H](OC(=O)c3ccccc3)C3[C@](C)(C(=O)[C@H](O)C(=C1C)C2(C)C)[C@@H](OC(=O)OCc1ccccc1)C[C@H]1OC[C@@]31OC(C)=O` (stereo partly shown) [Compound 6566], the IC50 was less than 10 nM.
Same read-out and setting: to `COC(=O)O[C@H]1C(=O)[C@@]2(C)C([C@H](OC(=O)c3ccccc3)[C@]3(O)C[C@H](OC(=O)[C@H](O)[C@@H](NC(=O)OC(C)(C)C)c4cccnc4)C(C)=C1C3(C)C)[C@]1(OC(C)=O)CO[C@@H]1C[C@@H]2O` (stereo partly shown) [Compound 2011] belongs less than 10 nM; to `CC(=O)O[C@H]1C[C@H]2OC[C@@]2(OC(C)=O)C2[C@H](OC(=O)c3ccccc3)[C@]3(O)C[C@H](OC(=O)[C@H](O)[C@@H](NC(=O)OC(C)(C)C)C4CC4)C(C)=C([C@@H](O)C(=O)[C@@]21C)C3(C)C` (stereo partly shown) [Compound 4555], less than 1 nM.
Still for that read-out and setting: as for `CCOC(=O)O[C@H]1C[C@H]2OC[C@@]2(OC(C)=O)C2[C@H](OC(=O)c3ccccc3)[C@]3(O)C[C@H](OC(=O)[C@H](O)[C@H](C=C(C)C)NC(=O)OCC(C)C)C(C)=C([C@@H](O)C(=O)[C@@]21C)C3(C)C` (stereo partly shown) [Compound 4688], the figure is less than 10 nM.
The same measure, in the same setting: to `C/C=C/C(=O)N[C@@H](c1cccs1)[C@@H](O)C(=O)O[C@H]1C[C@@]2(O)[C@@H](OC(=O)c3ccccc3)C3[C@](C)(C(=O)[C@H](OC(=O)OCC)C(=C1C)C2(C)C)[C@@H](O)C[C@H]1OC[C@@]31OC(C)=O` (stereo partly shown) [Compound 3243] belongs less than 1 nM; to `COC(=O)O[C@H]1C(=O)[C@@]2(C)C([C@H](OC(=O)c3ccccc3)[C@]3(O)C[C@H](OC(=O)[C@H](O)[C@@H](NC(=O)OC(C)(C)C)C(C)C)C(C)=C1C3(C)C)[C@]1(OC(C)=O)CO[C@@H]1C[C@@H]2O` (stereo partly shown) [Compound 2060], less than 10 nM.
Regarding `CCOC(=O)O[C@H]1C[C@H]2OC[C@@]2(OC(C)=O)C2[C@H](OC(=O)c3ccccc3)[C@]3(O)C[C@H](OC(=O)[C@H](O)[C@@H](NC(=O)c4cccs4)c4cccs4)C(C)=C([C@@H](O)C(=O)[C@@]21C)C3(C)C` (stereo partly shown) [Compound 4455], the IC50 is less than 1 nM.

Still in this experiment, the particulars now being: HCT116 cells, colony formation, 72 h incubation with drug, colonies counted after 7 days; ID50 = drug concentration producing 50% inhibition of colony formation; read-out: IN VITRO ID 50 (nm) HCT116.
As for `C/C=C/C(=O)N[C@@H](c1ccco1)[C@@H](O)C(=O)O[C@H]1C[C@@]2(O)[C@@H](OC(=O)c3ccccc3)C3[C@](C)(C(=O)[C@H](OC(=O)Nc4ccc(F)c(F)c4)C(=C1C)C2(C)C)[C@@H](O)C[C@H]1OC[C@@]31OC(C)=O` (stereo partly shown) [Compound 6015], the IC50 is less than 10 nM.
Turning to `CCNC(=O)O[C@H]1C(=O)[C@@]2(C)C([C@H](OC(=O)c3ccccc3)[C@]3(O)C[C@H](OC(=O)[C@H](O)[C@@H](NC(=O)OC(C)(C)C)c4ccco4)C(C)=C1C3(C)C)[C@]1(OC(C)=O)CO[C@@H]1C[C@@H]2O` (stereo partly shown) [Compound 2700], the IC50 is less than 1 nM.
With `CCNC(=O)O[C@H]1C(=O)[C@@]2(C)C([C@H](OC(=O)c3ccccc3)[C@]3(O)C[C@H](OC(=O)[C@H](O)[C@@H](NC(=O)OC(C)(C)C)c4cccs4)C(C)=C1C3(C)C)[C@]1(OC(C)=O)CO[C@@H]1C[C@@H]2O` (stereo partly shown) [Compound 2722, 3′-Desphenyl-3′-(2-thienyl)-10-N-ethylcarbamoyl docetaxel], the IC50 was less than 1 nM.

The experiment is the same for the next values; noted with them: HCT116 colony formation; 72 h drug incubation, colonies counted after 7 days; Example 5, C-7 ester/C-10 hydroxy taxanes; read-out: IN VITRO ID 50 (nm) HCT116.
In the case of `CCCC(=O)N[C@@H](c1cccs1)[C@@H](O)C(=O)O[C@H]1C[C@@]2(O)[C@@H](OC(=O)c3ccccc3)C3[C@](C)(C(=O)[C@H](O)C(=C1C)C2(C)C)[C@@H](OC(=O)CC)C[C@H]1OC[C@@]31OC(C)=O` (stereo partly shown) [Compound 3327], the IC50 is less than 10 nM.
The same measure, in the same setting: as for `CCC(=O)O[C@H]1C[C@H]2OC[C@@]2(OC(C)=O)C2[C@H](OC(=O)c3ccccc3)[C@]3(O)C[C@H](OC(=O)[C@H](O)[C@@H](NC(=O)OC(C)(C)C)C(C)C)C(C)=C([C@@H](O)C(=O)[C@@]21C)C3(C)C` (stereo partly shown) [Compound 1434], the figure is less than 10 nM.
Same read-out and setting: as for `CCC(=O)O[C@H]1C[C@H]2OC[C@@]2(OC(C)=O)C2[C@H](OC(=O)c3ccccc3)[C@]3(O)C[C@H](OC(=O)[C@H](O)[C@@H](NC(=O)OC(C)(C)C)c4ccncc4)C(C)=C([C@@H](O)C(=O)[C@@]21C)C3(C)C` (stereo partly shown) [Compound 1386], the figure is less than 1 nM; as for `CCCC(=O)O[C@H]1C[C@H]2OC[C@@]2(OC(C)=O)C2[C@H](OC(=O)c3ccccc3)[C@]3(O)C[C@H](OC(=O)[C@H](O)[C@@H](NC(=O)c4ccccc4)c4cccs4)C(C)=C([C@@H](O)C(=O)[C@@]21C)C3(C)C` (stereo partly shown) [Compound 4414], less than 1 nM.
Still for that read-out and setting: as for `CCC(=O)O[C@H]1C[C@H]2OC[C@@]2(OC(C)=O)C2[C@H](OC(=O)c3ccccc3)[C@]3(O)C[C@H](OC(=O)[C@H](O)[C@@H](NC(=O)OC(C)(C)C)c4ccsc4)C(C)=C([C@@H](O)C(=O)[C@@]21C)C3(C)C` (stereo partly shown) [Compound 1424], the figure is less than 1 nM.

The same experiment, now with this note: HCT116 colony formation; 72 h drug incubation, colonies counted after 7 days; Example 10, C-10 ester/C-7 hydroxy taxanes; read-out: IN VITRO ID 50 (nm) HCT116.
For the molecule `CC(=O)OC12COC1CC(O)C1(C)C(=O)C(OC(=O)c3ccco3)C3=C(C)C(OC(=O)C(O)C(NC(=O)OC(C)(C)C)c4ccco4)CC(O)(C(OC(=O)c4ccccc4)C21)C3(C)C` (stereo not shown) [Compound 2142], the IC50 was less than 1 nM.
On the same count and under the same terms, to `C/C=C/C(=O)N[C@@H](c1ccco1)[C@@H](O)C(=O)O[C@H]1C[C@@]2(O)[C@@H](OC(=O)c3ccccc3)C3[C@](C)(C(=O)[C@H](OC(=O)C4CC4)C(=C1C)C2(C)C)[C@@H](O)C[C@H]1OC[C@@]31OC(C)=O` (stereo partly shown) [Compound 3971] belongs less than 1 nM; to `CC(=O)O[C@@]12CO[C@@H]1C[C@H](O)[C@@]1(C)C(=O)[C@H](OC(=O)C(C)C)C3=C(C)[C@@H](OC(=O)[C@H](O)[C@@H](NC(=O)OC(C)(C)C)C4CCC4)C[C@@](O)([C@@H](OC(=O)c4ccccc4)C12)C3(C)C` (stereo partly shown) [Compound 2319], less than 10 nM.
On the same count and under the same terms, as for `CCCC(=O)OC1C(=O)C2(C)C(O)CC3OCC3(OC(C)=O)C2C(OC(=O)c2ccccc2)C2(O)CC(OC(=O)C(O)C(NC(=O)OC(C)(C)C)c3ccccc3)C(C)=C1C2(C)C` (stereo not shown) [Compound 1060], the figure is less than 1 nM.
The same measure, in the same setting: to `CCC(=O)O[C@H]1C(=O)[C@@]2(C)C([C@H](OC(=O)c3ccccc3)[C@]3(O)C[C@H](OC(=O)[C@H](O)[C@@H](NC(=O)OC(C)(C)C)C4CCC4)C(C)=C1C3(C)C)[C@]1(OC(C)=O)CO[C@@H]1C[C@@H]2O` (stereo partly shown) [Compound 0596] belongs less than 10 nM; to `C/C=C/C(=O)O[C@H]1C(=O)[C@@]2(C)C([C@H](OC(=O)c3ccccc3)[C@]3(O)C[C@H](OC(=O)[C@H](O)[C@@H](NC(=O)OC(C)(C)C)c4ccccn4)C(C)=C1C3(C)C)[C@]1(OC(C)=O)CO[C@@H]1C[C@@H]2O` (stereo partly shown) [Compound 2348], less than 1 nM.
For `CC(=O)OC12COC1CC(O)C1(C)C(=O)C(OC(=O)c3ccco3)C3=C(C)C(OC(=O)C(O)C(NC(=O)OC(C)(C)C)c4ccsc4)CC(O)(C(OC(=O)c4ccccc4)C21)C3(C)C` (stereo not shown) [Compound 2173], the IC50 was less than 1 nM.
On the same count and under the same terms, as for `CC(=O)OC12COC1CC(O)C1(C)C(=O)C(OC(=O)c3ccco3)C3=C(C)C(OC(=O)C(O)C(NC(=O)OC(C)(C)C)c4ccc([N+](=O)[O-])cc4)CC(O)(C(OC(=O)c4ccccc4)C21)C3(C)C` (stereo not shown) [Compound 2202], the figure is less than 1 nM.
On the same count and under the same terms, to `CC(=O)O[C@@]12CO[C@@H]1C[C@H](O)[C@@]1(C)C(=O)[C@H](OC(=O)C3CC3)C3=C(C)[C@@H](OC(=O)[C@H](O)[C@@H](NC(=O)c4ccccc4)c4ccc([N+](=O)[O-])cc4)C[C@@](O)([C@@H](OC(=O)c4ccccc4)C12)C3(C)C` (stereo partly shown) [Compound 2869] belongs less than 10 nM.
The same measure, in the same setting: to `CCC(=O)O[C@H]1C(=O)[C@@]2(C)C([C@H](OC(=O)c3ccccc3)[C@]3(O)C[C@H](OC(=O)[C@H](O)[C@@H](NC(=O)c4ccccc4)c4cccnc4)C(C)=C1C3(C)C)[C@]1(OC(C)=O)CO[C@@H]1C[C@@H]2O` (stereo partly shown) [Compound 0647] belongs 12 nM.
In the case of `CC(=O)OC12COC1CC(O)C1(C)C(=O)C(OC(=O)c3cccs3)C3=C(C)C(OC(=O)C(O)C(NC(=O)OC(C)(C)C)c4cccnc4)CC(O)(C(OC(=O)c4ccccc4)C21)C3(C)C` (stereo not shown) [Compound 1948], the IC50 was less than 10 nM.
For `C/C=C/C(=O)O[C@H]1C(=O)[C@@]2(C)C([C@H](OC(=O)c3ccccc3)[C@]3(O)C[C@H](OC(=O)[C@H](O)[C@@H](NC(=O)OC(C)(C)C)c4cccs4)C(C)=C1C3(C)C)[C@]1(OC(C)=O)CO[C@@H]1C[C@@H]2O` (stereo partly shown) [Compound 2392], the IC50 was less than 1 nM.
Still for that read-out and setting: as for `CC(=O)O[C@@]12CO[C@@H]1C[C@H](O)[C@@]1(C)C(=O)[C@H](OC(=O)C3CC3)C3=C(C)[C@@H](OC(=O)[C@H](O)[C@@H](NC(=O)c4ccccc4)c4ccncc4)C[C@@](O)([C@@H](OC(=O)c4ccccc4)C12)C3(C)C` (stereo partly shown) [Compound 2855], the figure is less than 1 nM.

Still in this experiment, the particulars now being: HCT116 colony formation; 72 h drug incubation, colonies counted after 7 days; Example 15, C-7 substituted acetate/C-10 hydroxy taxanes; read-out: IN VITRO ID 50 (nm) HCT116.
For `COCC(=O)O[C@H]1C[C@H]2OC[C@@]2(OC(C)=O)C2[C@H](OC(=O)c3ccccc3)[C@]3(O)C[C@H](OC(=O)[C@H](O)[C@@H](NC(=O)C=C(C)C)c4ccco4)C(C)=C([C@@H](O)C(=O)[C@@]21C)C3(C)C` (stereo partly shown) [Compound 5474], the IC50 was less than 1 nM.
The same measure, in the same setting: to `CCC(C)(C)OC(=O)N[C@@H](c1ccco1)[C@@H](O)C(=O)O[C@H]1C[C@@]2(O)[C@@H](OC(=O)c3ccccc3)C3[C@](C)(C(=O)[C@H](O)C(=C1C)C2(C)C)[C@@H](OC(=O)COC(C)=O)C[C@H]1OC[C@@]31OC(C)=O` (stereo partly shown) [Compound 6353] belongs less than 1 nM.

The same experiment, now with this note: HCT116 colony formation; 72 h drug incubation, colonies counted after 7 days; Example 20, C-10 substituted acetate/C-7 hydroxy taxanes; read-out: IN VITRO ID 50 (nm) HCT116.
For the molecule `C/C=C/C(=O)N[C@@H](c1ccco1)[C@@H](O)C(=O)O[C@H]1C[C@@]2(O)[C@@H](OC(=O)c3ccccc3)C3[C@](C)(C(=O)[C@H](OC(=O)COC)C(=C1C)C2(C)C)[C@@H](O)C[C@H]1OC[C@@]31OC(C)=O` (stereo partly shown) [Compound 6066], the IC50 is less than 1 nM.
